Measurements as given in patent publication US20250388623A1, “PEPTIDE INHIBITOR AND USE THEREOF” (CHENGDU BRILLIANT INSPIRATION BIOTHERAPEUTICS CO., LTD, priority 2022, published 2025).
Bridge positions count the residues as written; N and C are the ends. Peptide text beside a SMILES is read from it.

Tests used:
[1] = system: human breast cancer MCF7 cells; test: Transwell tumor cell migration, co-culture with PMA-differentiated THP-1 cells; assay type: cell-based; details: 100 μM polypeptide 48 h, co-culture 48 h; negative control group = 100.00
Protocol: (§1) This Example was to assess the effects of polypeptides on the migration abilities of different tumor cells. The experiment was performed using transwell nested chambers (membrane pore size of 8 μm), where THP-1 cells were inoculated in the lower chamber and treated with 300 nM PMA (Sigma, Catalog No.P1585) for differentiation and chamber-wall adherence, and then treated with 100 μM polypeptide (in the negative control, an equal volume of solvent was added) for 48 hours. The upper chamber was inoculated with tumor cells, human lung adenocarcinoma A549 cells (American Typical Culture Collection, ATCC, CCL-18), and co-cultured for 24 hours; or inoculated with human liver cancer HepG2/C3A cells (ATCC, CRL-10741), and co-cultured for 24 h; or inoculated with human breast cancer MCF7 cells (ATCC, HTB-22), and co-cultured for 48 h. After that, the upper chamber was taken out, fixed with 70% ethanol for 10 min and washed, then stained with Giemsa staining solution (Beyotime, Catalog No.C0131) for 45 min. After washing with double distilled water 2-3 times, unmigrated cells were wiped off the upper layer with a cotton swab. After the chamber was dried, it was observed under a microscope, and five different fields of view under a 100× magnification were randomly selected for counting and statistics. The polypeptides had significant inhibitory effects on the migratory abilities of human lung adenocarcinoma cells, human liver cancer cells, and human breast cancer cells.

[2] = system: human lung adenocarcinoma A549 cells; test: as above; assay type: cell-based; details: 100 μM polypeptide 48 h, co-culture 24 h; negative control group = 100.00
Protocol: as §1

[3] = system: human liver cancer HepG2/C3A cells; test: as above; assay type: cell-based; details: 100 μM polypeptide 48 h, co-culture 24 h; negative control group = 100.00
Protocol: as §1

active TGF-β = test: Active TGF-β level in lung tissue, bleomycin (BLM) mouse lung fibrosis model; assay type: in vivo; details: single intratracheal dose 3 mg/kg on Day 7, lung 24 h later, BLM model group = 100.00
Outline: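 Male C57/6J mice (6–8 wk) received intratracheal bleomycin 0.7 USP/kg on Day 1, then a single intratracheal peptide dose of 3 mg/kg on Day 7, with saline for the model group. The value is the ratio of peptide group to model group.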

[4] = system: human hepatic stellate cells (LX-2); test: ECM-related gene expression (RT-qPCR) in TGF-β1-stimulated LX-2 cells, liver fibrosis cell model; assay type: cell-based; details: 20 ng/mL TGF-β1 24 h, then 100 μM polypeptide 48 h; for COL I gene expression Mean: blank control 1.00, model group 6.62; for FN gene expression Mean: blank control 1.00, model group 11.38
Text: This Example was to evaluate the inhibitory effect of polypeptides on the expression of extracellular matrix (ECM)-related genes in a cellular model of liver fibrosis. The experiment utilized human hepatic stellate cells (LX-2), which are the primary source of myofibroblasts in the liver. Upon activation, hepatic stellate cells transform into myofibroblasts, which secrete ECM in live and play a direct role in the development of hepatic fibrosis. Transient stimulation of LX-2 cells with TGF-β1 can initiate a positive feedback regulation of TSP-1-TGF-β1 activation, which continuously enhances myofibroblast characteristics, including ECM production.
This experiment was performed as follows. LX-2 cells (Procell, CL-0560) were stimulated by 20 ng/mL TGF-β1 (Genscript, Catalog No.Z03411) for 24 h, then added 100 μM polypeptide and cultured for 48 h. An equal volume of solvent was added to the model group, and LX-2 cells without any treatment were used as a blank control. After that, LX-2 cells were collected and total RNA was extracted for RT-qPCR to detect the expression of ECM-related genes, EDA-Fibronectin (fibronectin, FN) and Collagen I (COL1). The polypeptides were able to reduce the expressions of FN and COL1 genes in LX-2 and inhibit ECM production.

Compound | MCF7 migration Mean (%) [1] [%] | A549 migration Mean (%) [2] [%] | HEPG2/C3A migration Mean (%) [3] [%] | active TGF-β content in lung tissue, ratio to model group, Mean(%) (active TGF-β) | COL I gene expression Mean [4] | FN gene expression Mean [4] | active TGF-β content in lung tissue, ratio to model group, Mean(%) (active TGF-β; 3 mg/kg)
C[C@@H]1NC(=O)[C@H]([C@@H](C)O)NC(=O)[C@H](CC(N)=O)NC(=O)[C@H](CC(=O)O)NC(=O)[C@H](CCC(=O)O)NC(=O)[C@@H]2CCCN2C(=O)[C@H](CC(=O)O)NC(=O)[C@H](CCC(N)=O)NC(=O)[C@H]([C@@H](C)O)NC(=O)[C@H](CO)NC1=O [SEQ ID NO: 46, cyclo[Thr-Gln-Asp-Pro-Glu-Asp-Asn-Thr-Ala-Ser]] (cyclo(ASTQDPEDNT)) | 57.98 | 36.12 | 64.77 | 79.36 | – | – | –
Ac-TQDAEDNTASH-NH2 [SEQ ID NO: 33, Ac-Thr-Gln-Asp-Ala-Glu-Asp-Asn-Thr-Ala-Ser-His-NH2] | 47.13 | 62.89 | 72.07 | 86.61 | 4.49 | 6.80 | –
CC(=O)N[C@H](C(=O)N[C@H]1CSSC[C@@H](C(=O)O)NC(=O)[C@H](CC(N)=O)NC(=O)[C@H](CC(=O)O)NC(=O)[C@H](CCC(=O)O)NC(=O)[C@H](C)NC(=O)[C@H](CC(=O)O)NC1=O)[C@@H](C)O [SEQ ID NO: 43, Ac-Thr-cyclo[Cys-Asp-Ala-Glu-Asp-Asn-Cys]] (Ac-TCDAEDNC-OH; disulfide 2-8) | 73.84 | 83.37 | 71.02 | 75.92 | 4.63 | 5.80 | –
C[C@@H]1NC(=O)[C@H](CC(=O)O)NC(=O)[C@H](CCC(N)=O)NC(=O)[C@H]([C@@H](C)O)NC(=O)[C@H](CC(N)=O)NC(=O)[C@H](CC(=O)O)NC(=O)[C@H](CCC(=O)O)NC1=O [SEQ ID NO: 40, cyclo[Thr-Gln-Asp-Ala-Glu-Asp-Asn]] (cyclo(AEDNTQD)) | 51.27 | 67.97 | 67.27 | – | – | – | 68.27
Ac-TQDAEDPTAS-NH2 [SEQ ID NO: 25, Ac-Thr-Gln-Asp-Ala-Glu-Asp-Pro-Thr-Ala-Ser-NH2] | 61.75 | 62.95 | 63.99 | 86.63 | 4.00 | 6.47 | –
Ac-TQDAEDN-NH2 [SEQ ID NO: 06, Ac-Thr-Gln-Asp-Ala-Glu-Asp-Asn-NH2] | 51.95 | 80.41 | 81.77 | 76.76 | 4.57 | 5.72 | –
CC(=O)N[C@H](C(=O)N[C@H]1CSSC[C@@H](C(N)=O)NC(=O)[C@H](CC(N)=O)NC(=O)[C@H](CC(=O)O)NC(=O)[C@H](CCC(=O)O)NC(=O)[C@H](C)NC(=O)[C@H](CC(=O)O)NC1=O)[C@@H](C)O [SEQ ID NO: 44, Ac-Thr-cyclo[Cys-Asp-Ala-Glu-Asp-Asn-Cys]-NH2] (Ac-TCDAEDNC-NH2; disulfide 2-8) | 68.24 | 73.63 | 70.63 | 81.73 | – | – | –
Ac-TQDPEDNTAS-NH2 [SEQ ID NO: 26, Ac-Thr-Gln-Asp-Pro-Glu-Asp-Asn-Thr-Ala-Ser-NH2] | 63.23 | 73.25 | 55.16 | 83.44 | 4.30 | 5.79 | –
Ac-TQDAEDPTA-NH2 [SEQ ID NO: 22, Ac-Thr-Gln-Asp-Ala-Glu-Asp-Pro-Thr-Ala-NH2] | 48.64 | 59.45 | 76.69 | 82.72 | 4.63 | 6.62 | –
